Results from patent publication EP0345251B1 (priority 1986, dated 1988).

Legend:
leukaemia L1210 = experiment: Antitumour activity against leukaemia L1210 (survival); assay type: in vivo, BDF₁ mice; set-up: MST: unit not given here; details: for SURVIVAL (mean days) / SURVIVORS No. at 60 d: in combination CRON 200 mg/kg, CR same as MTZ; for MST: median survival time; for T/C: treated/control
Protocol: Antitumour effects. Male Swiss Schneider mice of 27g body weight were used for the sarcoma S180 experiments: female C₅₇Bl mice of 20g body weight were used for the B16 melanoma experiments; […]; and C₅₇Bl mice of 20g body weight were used for the Lewis lung experiments.
L1210. Spleens were removed from animals 7 days after inoculation of L1210 cells and these spleens were finely minced with 1:100 isotonic saline. 0.1 ml of this spleen and leukaemia L1210 cell suspension was then injected subcutaneously into the flank of each BDF₁.

[1] = tested on: Lewis lung carcinoma (3LL); experiment: Lewis lung carcinoma (3LL): primary tumour and lung secondaries; assay type: in vivo, C₅₇Bl mice
Protocol: Antitumour effects. Male Swiss Schneider mice of 27g body weight were used for the sarcoma S180 experiments: female C₅₇Bl mice of 20g body weight were used for the B16 melanoma experiments; male BDF₁ mice of 30g body weight were used for the L1210 leukaemia experiments; and C₅₇Bl mice of 20g body weight were used for the Lewis lung experiments.
Lewis lung (3LL). This tumour was prepared for inoculation in a manner identical to that used for the S180 sarcoma.
This tumour metastasizes to the lungs when implanted into the flanks of mice. […]

[2] = Mitozantrone toxicity in mice, with and without Cronassial; assay type: in vivo, Male Swiss Schneider mice; details: host SN
Protocol: (§1) Toxicity acute and chronic. Male Swiss Schneider mice with a body weight of 25-30g were used for these experiments. Mice were usually kept in groups of not more than 8 in standard cages. Food and water were supplied ad libidum. The animals were kept in experimental rooms under closely controlled conditions. They were weighed daily. For acute vincristine toxicity in chicks, 48 hour old SPF chicks were used.
Cronassial®. A solution of this substance, which is a mixture of four gangliosides, was prepared by the addition of a volume of sterile distilled water sufficient to give a concentration of 200 mg/kg in a volume of 0.2 ml. This dose was given to mice of approximately 20g.
(§2) Mitozantrone was made up in an appropriate manner. It was given in a volume of 0.2ml when the injections were given intraperitoneally but when given by another route, the volumes given were indicated in the appropriate Table.

[3] = Mitozantrone toxicity in mice bearing S180, with and without Cronassial; assay type: in vivo, Male Swiss Schneider mice; details: chronic, host SN (+S180), MTZ 5 mg/kg ip days 3.4.5
Protocol: as §1
Sarcoma S180. This tumour has been transplanted in the same strain of mouse for more than 10 years.
Transplantation was done by subcutaneous inoculation of 0.1 ml of a tumour mash made by finely mincing viable tumour tissue and passing it repeatedly through a 26 gauge needle into a sterile Petri dish. 0.1 ml of penicillin (20,000 m/ml) and streptomycin (20,000 m/ml) were added to the mash, as well as neomycin (5 mgs).
as §2

[4] = Blood counts (Coulter counter) after mitozantrone, with and without Cronassial; assay type: in vivo; details: blood by cardiac puncture
[5] = L1210, host BDF1, MTZ 5 mg/kg ip days 0.1.2
[6] = L1210, host BDF1, MTZ 5 mg/kg ip days 1.2.3
[7] = chronic, first pair of Table 4: MTZ 5 ip days 1,2, in combination CRON 200 same time as MTZ
[8] = chronic, second series of Table 4: MTZ 5 ip days 1,2, in combination CRON 200 same time as MTZ
[9] = M, MTZ 4 mg/kg iv x 3, days 1.2.3, in combination CRON 200 mg/kg, mixed as one injection

Compound: O=C1c2c(O)ccc(O)c2C(=O)c2c(NCCNCCO)ccc(NCCNCCO)c21 [MTZ, mitozantrone]
- SURVIVAL (mean days) (leukaemia L1210; [5]): 6.14 days
- SURVIVORS No. at 60 d (leukaemia L1210; [5]): 1/8
- SURVIVAL (mean days) (leukaemia L1210; [6]): 17.1 days
- SURVIVORS No. at 60 d (leukaemia L1210; [6]): 2/8
- SURVIVORS No. at 60 d (leukaemia L1210; L1210, host BDF1, MTZ 5 mg/kg ip days 3.4.5, CMC-controls 0/8): 0/8
- SURVIVAL (mean days) (leukaemia L1210; L1210, host BDF1, MTZ 5 mg/kg ip days 3.4.5, CMC-controls 8.7): 25.2 days
- SURVIVORS No. at 60 d (leukaemia L1210; L1210, host DBA, MTZ 5 mg/kg ip days 2.3.4, CMC-controls 0/6): 0/6
- SURVIVAL (mean days) (leukaemia L1210; L1210, host DBA, MTZ 5 mg/kg ip days 2.3.4, CMC-controls 7.2): 16.8 days
- mice died by day 14 ([1]; 3LL in flank, mitozantrone 3.0 mg/kg for 5 days, day 5 to 9 after implantation): 7/8
- SURVIVAL (mean days) [2, 7]: 9 days
- SURVIVORS No.at 30 d [2, 7]: 0/6
- SURVIVAL (mean days) [2, 8]: 11 days
- SURVIVORS No.at 30 d [2, 8]: 0/6
- SURVIVAL (mean days) [2, 9]: 7.8 days
- SURVIVORS d.30 [2, 9]: 0/5
- SURVIVORS No.at 30 d [3]: 0/8
- SURVIVAL (mean days) ([3]; in combination CRON 200 mg/kg, CR same time MTZ): 8.8 days
- MEAN VALUES OF INDIVIDUAL ANIMALS RBC x 10¹²/l ([4]; Day 5., controls 7.9): 7.3 x 10¹²/l
- MEAN VALUES OF INDIVIDUAL ANIMALS WBC X 10⁹/l ([4]; Day 5, controls 9.3): 3.5 X 10⁹/l
- MEAN VALUES OF INDIVIDUAL ANIMALS PLATELETS x 10⁹/l ([4]; Day 5, controls 632): 631 x 10⁹/l
- MEAN VALUES OF INDIVIDUAL ANIMALS PLATELETS x 10⁹/l ([4]; Day 7): 845 x 10⁹/l
- MEAN VALUES OF INDIVIDUAL ANIMALS RBC x 10¹²/l ([4]; Day 7): 7.0 x 10¹²/l
- MEAN VALUES OF INDIVIDUAL ANIMALS WBC X 10⁹/l ([4]; Day 7): 2.2 X 10⁹/l
- MEAN VALUES OF INDIVIDUAL ANIMALS WBC X 10⁹/l ([4]; Day 8, controls 5.2): 3.2 X 10⁹/l
- MEAN VALUES OF INDIVIDUAL ANIMALS RBC x 10¹²/l ([4]; Day 8, controls 7.2): 7.1 x 10¹²/l
- MEAN VALUES OF INDIVIDUAL ANIMALS PLATELETS x 10⁹/l ([4]; Day 8, controls 649): 1058 x 10⁹/l

Compound: COc1cccc2c1C(=O)c1c(O)c3c(c(O)c1C2=O)C[C@@](O)(C(=O)CO)C[C@@H]3O[C@H]1C[C@H](N)[C@H](O)[C@H](C)O1 [ADR, adriamycin]
- DEATHS L1210 (leukaemia L1210; Table 11: BDF ♀ 20g, L1210 s.c., 8/group, i.p. days 1, 2, 3, ADR 4.0 mg/kg, in combination CRON 200): 8
- DEATHS L1210 (leukaemia L1210; Table 11: BDF ♀ 20g, L1210 s.c., 8/group, i.p. days 1, 2, 3, ADR 6.0 mg/kg, in combination CRON 200): 8
- DEATHS L1210 (leukaemia L1210; Table 11: BDF ♀ 20g, L1210 s.c., 8/group, i.p. days 1, 2, 3, ADR 8.0 mg/kg, in combination CRON 200): 8
- DEATHS L1210 (leukaemia L1210; Table 12: BDF ♂ 35g (6/12 old), L1210 s.c., 8/group, i.p. days 1, 2, 3, ADR 6.0 mg/kg): 1
- DEATHS TOXICITY (leukaemia L1210; Table 12: BDF ♂ 35g (6/12 old), L1210 s.c., 8/group, i.p. days 1, 2, 3, ADR 6.0 mg/kg, in combination CRON 200): 7
- DEATHS TOXICITY (leukaemia L1210; Table 12: BDF ♂ 35g (6/12 old), L1210 s.c., 8/group, i.p. days 1, 2, 3, ADR 8.0 mg/kg, in combination CRON 200): 8
- DEATHS TOXICITY (leukaemia L1210; Table 12: BDF ♂ 35g (6/12 old), L1210 s.c., 8/group, i.p. days 1, 2, 3, ADR 10.0 mg/kg, in combination CRON (dose not given)): 8
- COMMENTS (leukaemia L1210; Table 12: BDF ♂ 35g (6/12 old), L1210 s.c., i.p. days 1, 2, 3, ADR 8.0 mg/kg): Toxic
- COMMENTS (leukaemia L1210; Table 12: BDF ♂ 35g (6/12 old), L1210 s.c., i.p. days 1, 2, 3, ADR 10.0 mg/kg, bracket spans ADR and ADR/CRON lines): ) Toxic
- DEATHS TOXICITY (leukaemia L1210; Table 13: BDF ♀ 25g (2-3/12 old), L1210 s.c., 7/group, i.p. days 1, 2, 3, ADR 10.0 mg/kg, in combination CRON 200): 7
- DEATHS TOXICITY (leukaemia L1210; Table 13: BDF ♀ 25g (2-3/12 old), L1210 s.c., 7/group, i.p. days 1, 2, 3, ADR 12.5 mg/kg, in combination CRON 200): 7
- DEATHS TOXICITY (leukaemia L1210; Table 13: BDF ♀ 25g (2-3/12 old), L1210 s.c., 7/group, i.p. days 1, 2, 3, ADR 15.0 mg/kg, in combination CRON (dose not given)): 7
- COMMENTS (leukaemia L1210; Table 13: BDF ♀ 25g (2-3/12 old), L1210 s.c., i.p. days 1, 2, 3, ADR 12.5 mg/kg, bracket spans ADR and ADR/CRON lines): } Toxic
- COMMENTS (leukaemia L1210; Table 13: BDF ♀ 25g (2-3/12 old), L1210 s.c., i.p. days 1, 2, 3, ADR 15.0 mg/kg, bracket spans ADR and ADR/CRON lines): } Toxic
- MST (leukaemia L1210; Table 11: BDF ♀ 20g, L1210 s.c., i.p. days 1, 2, 3, ADR 4.0 mg/kg, in combination CRON 200, control 6.8): 10.8
- MST (leukaemia L1210; Table 11: BDF ♀ 20g, L1210 s.c., i.p. days 1, 2, 3, ADR 6.0 mg/kg, in combination CRON 200, control 6.8): 9.7
- MST (leukaemia L1210; Table 11: BDF ♀ 20g, L1210 s.c., i.p. days 1, 2, 3, ADR 8.0 mg/kg, in combination CRON 200, control 6.8): 11.8
- MST (leukaemia L1210; Table 12: BDF ♂ 35g (6/12 old), L1210 s.c., i.p. days 1, 2, 3, ADR 6.0 mg/kg, in combination CRON 200, control 7.0): 9.38
- MST (leukaemia L1210; Table 12: BDF ♂ 35g (6/12 old), L1210 s.c., i.p. days 1, 2, 3, ADR 8.0 mg/kg, in combination CRON 200, control 7.0): 5.8
- MST (leukaemia L1210; Table 12: BDF ♂ 35g (6/12 old), L1210 s.c., i.p. days 1, 2, 3, ADR 10.0 mg/kg, in combination CRON (dose not given), control 7.0): 5.5
- MST (leukaemia L1210; Table 13: BDF ♀ 25g (2-3/12 old), L1210 s.c., i.p. days 1, 2, 3, ADR 10.0 mg/kg, in combination CRON 200, control 10.6): 10.3
- MST (leukaemia L1210; Table 13: BDF ♀ 25g (2-3/12 old), L1210 s.c., i.p. days 1, 2, 3, ADR 12.5 mg/kg, in combination CRON 200, control 10.6): 5.4
- MST (leukaemia L1210; Table 13: BDF ♀ 25g (2-3/12 old), L1210 s.c., i.p. days 1, 2, 3, ADR 15.0 mg/kg, in combination CRON (dose not given), control 10.6): 5.1
- T/C (leukaemia L1210; Table 11: BDF ♀ 20g, L1210 s.c., i.p. days 1, 2, 3, ADR 4.0 mg/kg, in combination CRON 200): 159
- T/C (leukaemia L1210; Table 11: BDF ♀ 20g, L1210 s.c., i.p. days 1, 2, 3, ADR 6.0 mg/kg, in combination CRON 200): 135
- T/C (leukaemia L1210; Table 11: BDF ♀ 20g, L1210 s.c., i.p. days 1, 2, 3, ADR 8.0 mg/kg, in combination CRON 200): 174
- T/C (leukaemia L1210; Table 12: BDF ♂ 35g (6/12 old), L1210 s.c., i.p. days 1, 2, 3, ADR 6.0 mg/kg, in combination CRON 200): 134
- T/C (leukaemia L1210; Table 12: BDF ♂ 35g (6/12 old), L1210 s.c., i.p. days 1, 2, 3, ADR 8.0 mg/kg, in combination CRON 200): 83
- T/C (leukaemia L1210; Table 12: BDF ♂ 35g (6/12 old), L1210 s.c., i.p. days 1, 2, 3, ADR 10.0 mg/kg, in combination CRON (dose not given)): 79
- T/C (leukaemia L1210; Table 13: BDF ♀ 25g (2-3/12 old), L1210 s.c., i.p. days 1, 2, 3, ADR 10.0 mg/kg, in combination CRON 200): 97
- T/C (leukaemia L1210; Table 13: BDF ♀ 25g (2-3/12 old), L1210 s.c., i.p. days 1, 2, 3, ADR 12.5 mg/kg, in combination CRON 200): 51
- T/C (leukaemia L1210; Table 13: BDF ♀ 25g (2-3/12 old), L1210 s.c., i.p. days 1, 2, 3, ADR 15.0 mg/kg, in combination CRON (dose not given)): 48
- COMMENTS (survival) ([1]; C57Bl mice, 3LL s.c., 8/group, ADR 3 mg/kg i.p. days 6-10, in combination CRN 200 mg/kg): All ADR alone animals dead by d17

Compound: CO[C@@]12[C@H](COC(N)=O)C3=C(C(=O)C(C)=C(N)C3=O)N1C[C@@H]1N[C@@H]12 [MMC, Mitomycin C]
- SURVIVORS 14d (leukaemia L1210; Table 15: BDF mice, L1210 s.c., 8/group, i.p. days 1, 2, 3, MMC 5 mg/kg, in combination CRN 200 mg/kg): 1
- MST (leukaemia L1210; Table 15: BDF mice, L1210 s.c., i.p. days 1, 2, 3, MMC 5 mg/kg, in combination CRN 200 mg/kg, control 7.1): 7.0
